Laboratory results reported in patent publication US9738634B2, “Heterocyclic amide compound and herbicide” (SYNGENTA PARTICIPATIONS AG, priority 2013, dated 2017).

Experiments:
Type in all cases: in vivo
bulrush [1] = test: Test Example 2: weedkilling efficacy, growth period weed treatment in the submerged state; B: bulrush; conditions: treatment dosage 252 g/ha
In short: (§1)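 Seedlings at 1-2 leaves in 4 cm-deep submerged alluvial soil received emulsion formulations on the water surface, dosed per hectare; effects were judged 3 weeks on.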

redroot pigweed = test: Test Example 3: weedkilling efficacy through soil treatment; L: redroot pigweed; conditions: soil treatment, treatment dosage 315 g/ha
Source text: (§2) Weedkilling Efficacy Test Through Soil Treatment
(§3) Sterilized diluvial soil was introduced into 21 cm long, 13 cm wide, 7 cm deep plastic boxes, and seeds of crabgrass, green foxtail, barnyard grass, wild oat, black-grass, Italian ryegrass, common wind-grass, Indian mallow, redroot pigweed, fig-leafed goosefoot, chickweed, catchweed, birds-eye speedwell, corn, soybean, rice, wheat, beet and rapeseed were each spot-sown, and covered with about 1.5 cm of soil. Next, emulsions of compounds of the present invention prepared according to compounding example 2 were diluted with water to give the specified dosages, and applied uniformly onto the soil surface with a small sprayer. The plants were grown by placing the plastic boxes in a greenhouse at 25 to 30° C., and 3 weeks after the pesticide treatment the effect on each type of plant was investigated on the basis of the assessment criteria of test example 1.
(§4) A: barnyard grass, B: bulrush, C: oval-leafed pondweed, D: crabgrass, E: green foxtail, F: barnyard grass, G: wild oat, H: black-grass, I: Italian ryegrass, J: common wind-grass, K: Indian mallow, L: redroot pigweed, M: fig-leafed goosefoot, N: chickweed, O: catchweed, p: birds-eye speedwell, a: transplanted rice, b: directly sown rice, c: corn, d: soybean, e: wheat, f: beet, g: rapeseed
(§5) Further, pesticide dosage (g/ha) indicates the concentration regulated such that treatment was with only the stated number of grams (g), when calculated per hectare (ha).

oval-leafed pondweed [2] = test: Test Example 1: weedkilling efficacy, preemergent weed treatment in the submerged state; C: oval-leafed pondweed; conditions: treatment dosage 252 g/ha
In short: (§6)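 Pre-emergence paddy test: weed seeds sown in submerged alluvial soil (4 cm water), 2.5-leaf rice transplanted, water-diluted emulsion applied to water surface at sowing at stated g/ha. Scored at 3 weeks, greenhouse 25–30 °C.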

Indian mallow = test: Test Example 3: weedkilling efficacy through soil treatment; K: Indian mallow; conditions: soil treatment, treatment dosage 315 g/ha
Source text: as §2, §3, §4, §5

fig-leafed goosefoot = test: Test Example 3: weedkilling efficacy through soil treatment; M: fig-leafed goosefoot; conditions: soil treatment, treatment dosage 315 g/ha
Source text: as §2, §3, §4, §5

crabgrass = test: Test Example 3: weedkilling efficacy through soil treatment; D: crabgrass; conditions: soil treatment, treatment dosage 315 g/ha
Source text: as §2, §3, §4, §5

beet = test: Test Example 3: soil treatment, effect on crop; f: beet; conditions: soil treatment, treatment dosage 315 g/ha
Source text: as §2, §3, §4, §5

oval-leafed pondweed [3] = test: Test Example 2: weedkilling efficacy, growth period weed treatment in the submerged state; C: oval-leafed pondweed; conditions: treatment dosage 252 g/ha
In short: as §1

green foxtail = test: Test Example 3: weedkilling efficacy through soil treatment; E: green foxtail; conditions: soil treatment, treatment dosage 315 g/ha
Source text: as §2, §3, §4, §5

corn = test: Test Example 3: soil treatment, effect on crop; c: corn; conditions: soil treatment, treatment dosage 315 g/ha
Source text: as §2, §3, §4, §5

Italian ryegrass = test: Test Example 3: weedkilling efficacy through soil treatment; I: Italian ryegrass; conditions: soil treatment, treatment dosage 315 g/ha
Source text: as §2, §3, §4, §5

soybean = test: Test Example 3: soil treatment, effect on crop; d: soybean; conditions: soil treatment, treatment dosage 315 g/ha
Source text: as §2, §3, §4, §5

transplanted rice = test: Test Example 1: preemergent weed treatment in the submerged state, effect on crop; a: transplanted rice; conditions: treatment dosage 252 g/ha
In short: as §6

bulrush [4] = test: Test Example 1: weedkilling efficacy, preemergent weed treatment in the submerged state; B: bulrush; conditions: treatment dosage 252 g/ha
In short: as §6

black-grass = test: Test Example 3: weedkilling efficacy through soil treatment; H: black-grass; conditions: soil treatment, treatment dosage 315 g/ha
Source text: as §2, §3, §4, §5

barnyard grass [5] = test: Test Example 1: weedkilling efficacy, preemergent weed treatment in the submerged state; A: barnyard grass; conditions: treatment dosage 252 g/ha
In short: as §6

wheat = test: Test Example 3: soil treatment, effect on crop; e: wheat; conditions: soil treatment, treatment dosage 315 g/ha
Source text: as §2, §3, §4, §5

wild oat = test: Test Example 3: weedkilling efficacy through soil treatment; G: wild oat; conditions: soil treatment, treatment dosage 315 g/ha
Source text: as §2, §3, §4, §5

barnyard grass [6] = test: Test Example 2: weedkilling efficacy, growth period weed treatment in the submerged state; A: barnyard grass; conditions: treatment dosage 252 g/ha
In short: as §1

directly sown rice = test: Test Example 3: soil treatment, effect on crop; b: directly sown rice; conditions: soil treatment, treatment dosage 315 g/ha
Source text: as §2, §3, §4, §5

chickweed = test: Test Example 3: weedkilling efficacy through soil treatment; N: chickweed; conditions: soil treatment, treatment dosage 315 g/ha
Source text: as §2, §3, §4, §5

Structure (SMILES) | B (bulrush) weedkilling efficacy grade (bulrush [1]) | L: redroot pigweed, weedkilling efficacy grade (redroot pigweed) | C: oval-leafed pondweed, weed kill grade (oval-leafed pondweed [2]) | K: Indian mallow, weedkilling efficacy grade (Indian mallow) | M: fig-leafed goosefoot, weedkilling efficacy grade (fig-leafed goosefoot) | D: crabgrass, weedkilling efficacy grade (crabgrass) | f: beet, effect on crop grade (beet) | C (oval-leafed pondweed) weedkilling efficacy grade (oval-leafed pondweed [3]) | E: green foxtail, weedkilling efficacy grade (green foxtail) | c: corn, effect on crop grade (corn) | I: Italian ryegrass, weedkilling efficacy grade (Italian ryegrass) | d: soybean, effect on crop grade (soybean) | a: transplanted rice, effect on crop grade (transplanted rice) | B: bulrush, weed kill grade (bulrush [4]) | H: black-grass, weedkilling efficacy grade (black-grass) | A: barnyard grass, weed kill grade (barnyard grass [5]) | e: wheat, effect on crop grade (wheat) | G: wild oat, weedkilling efficacy grade (wild oat) | A (barnyard grass) weedkilling efficacy grade (barnyard grass [6]) | N: chickweed, weedkilling efficacy grade (chickweed) | further results
Cc1cc(NC(=O)C(C)(C)N2COCN(c3ccccc3)C2=O)sn1 [A-1-10] | 5 (weed kill ratio 90% or more, (practically complete withering)) | 4 (weed kill ratio 70% or more, less than 90%) | 3 (weed kill ratio 40% or more, less than 70%) | 3 (weed kill ratio 40% or more, less than 70%) | 4 (weed kill ratio 70% or more, less than 90%) | 4 (weed kill ratio 70% or more, less than 90%) | 4 (weed kill ratio 70% or more, less than 90%) | 0 (weed kill ratio 5% or less (practically no effect)) | 4 (weed kill ratio 70% or more, less than 90%) | 0 (weed kill ratio 5% or less (practically no effect)) | 4 (weed kill ratio 70% or more, less than 90%) | 0 (weed kill ratio 5% or less (practically no effect)) | 0 (weed kill ratio 5% or less (practically no effect)) | 5 (weed kill ratio 90% or more, (practically complete withering)) | 2 (weed kill ratio 20% or more, less than 40%) | 3 (weed kill ratio 40% or more, less than 70%) | 0 (weed kill ratio 5% or less (practically no effect)) | 0 (weed kill ratio 5% or less (practically no effect)) | 0 (weed kill ratio 5% or less (practically no effect)) | 0 (weed kill ratio 5% or less (practically no effect)) | b: directly sown rice, effect on crop grade (directly sown rice): 0 (weed kill ratio 5% or less (practically no effect))
CC(C)(C(=O)Nc1cc(Cl)cc(Br)n1)N1COCN(c2ccccc2)C1=O [A-2-24] | 5 (weed kill ratio 90% or more, (practically complete withering)) | 4 (weed kill ratio 70% or more, less than 90%) | 5 (weed kill ratio 90% or more, (practically complete withering)) | 4 (weed kill ratio 70% or more, less than 90%) | 4 (weed kill ratio 70% or more, less than 90%) | 5 (weed kill ratio 90% or more, (practically complete withering)) | – | 5 (weed kill ratio 90% or more, (practically complete withering)) | 5 (weed kill ratio 90% or more, (practically complete withering)) | 0 (weed kill ratio 5% or less (practically no effect)) | 5 (weed kill ratio 90% or more, (practically complete withering)) | 1 (weed kill ratio 5% or more, less than 20%) | 0 (weed kill ratio 5% or less (practically no effect)) | 5 (weed kill ratio 90% or more, (practically complete withering)) | 5 (weed kill ratio 90% or more, (practically complete withering)) | 5 (weed kill ratio 90% or more, (practically complete withering)) | 4 (weed kill ratio 70% or more, less than 90%) | 5 (weed kill ratio 90% or more, (practically complete withering)) | 5 (weed kill ratio 90% or more, (practically complete withering)) | 4 (weed kill ratio 70% or more, less than 90%) | b: directly sown rice, effect on crop grade (directly sown rice): 4 (weed kill ratio 70% or more, less than 90%)
CC(C)(C(=O)Nc1cccc(Cl)n1)N1COCN(c2ccccc2)C1=O [A-2-07] | 5 (weed kill ratio 90% or more, (practically complete withering)) | 5 (weed kill ratio 90% or more, (practically complete withering)) | 5 (weed kill ratio 90% or more, (practically complete withering)) | 0 (weed kill ratio 5% or less (practically no effect)) | 4 (weed kill ratio 70% or more, less than 90%) | 5 (weed kill ratio 90% or more, (practically complete withering)) | 5 (weed kill ratio 90% or more, (practically complete withering)) | 5 (weed kill ratio 90% or more, (practically complete withering)) | 5 (weed kill ratio 90% or more, (practically complete withering)) | 4 (weed kill ratio 70% or more, less than 90%) | 5 (weed kill ratio 90% or more, (practically complete withering)) | 4 (weed kill ratio 70% or more, less than 90%) | 4 (weed kill ratio 70% or more, less than 90%) | 5 (weed kill ratio 90% or more, (practically complete withering)) | 5 (weed kill ratio 90% or more, (practically complete withering)) | 5 (weed kill ratio 90% or more, (practically complete withering)) | 3 (weed kill ratio 40% or more, less than 70%) | 5 (weed kill ratio 90% or more, (practically complete withering)) | 4 (weed kill ratio 70% or more, less than 90%) | 4 (weed kill ratio 70% or more, less than 90%) | –
